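Results reflect a 48-hour exposure of cells in 96-well plates to compound at five concentrations. GI50 marks 50% less growth.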 Calls of active or inactive are those of the source. No stated cut-off is given here; in the data, active = GI50 up to about 1.1 µM and inactive = higher.
Experiments:
Assay in all cases: DTP human tumour cell line panel, 48 h
IGROV-1 = test system: IGROV-1
SF-295 = test system: SF-295
SK-MEL-2 = test system: SK-MEL-2
NCI/ADR-RES = test system: NCI/ADR-RES
PC-3 = test system: PC-3
HCT-116 = test system: HCT-116
BT-549 = test system: BT-549
OVCAR-3 = test system: OVCAR-3
MDA-MB-435 = test system: MDA-MB-435
NCI-H23 = test system: NCI-H23
UO-31 = test system: UO-31
HCT-15 = test system: HCT-15
Hs-578T = test system: Hs-578T
SNB-19 = test system: SNB-19
TK-10 = test system: TK-10
EKVX = test system: EKVX
T47D = test system: T47D
HT-29 = test system: HT-29
NCI-H522 = test system: NCI-H522

Structure (SMILES)	GI50 (IGROV-1)	GI50 (SF-295)	GI50 (SK-MEL-2)	GI50 (NCI/ADR-RES)	GI50 (PC-3)	GI50 (HCT-116)	GI50 (BT-549)	GI50 (OVCAR-3)	GI50 (MDA-MB-435)	GI50 (NCI-H23)	GI50 (UO-31)	GI50 (HCT-15) [µM]	GI50 (Hs-578T)	GI50 (SNB-19)	GI50 (TK-10)	GI50 (EKVX)	GI50 (T47D)	GI50 (HT-29)	GI50 (NCI-H522)
Cc1[nH]c2ncn3nc(C(Cl)(Cl)Cl)nc3c2c1Cc1ccccc1	> 100 µM (inactive)	> 100 µM (inactive)	> 100 µM (inactive)	> 100 µM (inactive)	> 100 µM (inactive)	> 100 µM (inactive)	> 100 µM (inactive)	> 100 µM (inactive)	> 100 µM (inactive)	> 100 µM (inactive)	10.5 µM (inactive)	> 100	> 100 µM (inactive)	> 100 µM (inactive)	> 100 µM (inactive)	> 100 µM (inactive)	> 100 µM (inactive)	> 100 µM (inactive)	> 100 µM (inactive)
Cc1ccc(-n2cnc(C(=N)C#N)c2N)cc1	> 100 µM (inactive)	> 100 µM (inactive)	> 100 µM (inactive)	> 100 µM (inactive)	> 100 µM (inactive)	> 100 µM (inactive)	> 100 µM (inactive)	> 100 µM (inactive)	> 100 µM (inactive)	> 100 µM (inactive)	> 100 µM (inactive)	> 100	> 100 µM (inactive)	> 100 µM (inactive)	> 100 µM (inactive)	> 100 µM (inactive)	> 100 µM (inactive)	> 100 µM (inactive)	> 100 µM (inactive)
C=CCNC1=C2C[C@@H](C)C[C@@H](OC)[C@H](OC(=O)CN(C)C)[C@H](C)/C=C(\C)[C@@H](OC(N)=O)[C@H](OC)/C=C\C=C(/C)C(=O)NC(=CC1=O)C2=O	0.0942 µM (active)	0.128 µM (active)	0.0608 µM (active)	8.22 µM (inactive)	0.0495 µM (active)	0.0871 µM (active)	4.72 µM (inactive)	0.286 µM (active)	0.042 µM (active)	0.043 µM (active)	0.757 µM (active)	0.535	13.3 µM (inactive)	0.585 µM (active)	0.0543 µM (active)	1.28 µM (inactive)	4.82 µM (inactive)	< 0.01 µM (active)	0.183 µM (active)
C=C1C(=O)O[C@@H]2C[C@@]3(C)CCCC(=C)[C@@H]3C[C@H]12.C=C1C(=O)O[C@@H]2C[C@@]3(C)CCC[C@H](C)C3=C[C@H]12	2.72 µM (inactive)	11.5 µM (inactive)	2.09 µM (inactive)	1.96 µM (inactive)	3.2 µM (inactive)	1.41 µM (inactive)	1.45 µM (inactive)	1.61 µM (inactive)	1.54 µM (inactive)	2 µM (inactive)	1.59 µM (inactive)	1.55	2.92 µM (inactive)	9.33 µM (inactive)	2.88 µM (inactive)	4.78 µM (inactive)	1.09 µM (active)	2.12 µM (inactive)	1.38 µM (inactive)
COc1ccc(C(=O)C#Cc2cn(C3CC(O)C(CO)O3)c(=O)[nH]c2=O)cc1 (configuration not stated)	> 100 µM (inactive)	> 100 µM (inactive)	56.4 µM (inactive)	42.6 µM (inactive)	> 100 µM (inactive)	39.7 µM (inactive)	20.2 µM (inactive)	19.2 µM (inactive)	56.8 µM (inactive)	> 100 µM (inactive)	> 100 µM (inactive)	> 100	30.6 µM (inactive)	> 100 µM (inactive)	78.3 µM (inactive)	> 100 µM (inactive)	19.2 µM (inactive)	> 100 µM (inactive)	11.9 µM (inactive)
Cc1ccc(-c2nc(C)c(C(=O)Nc3ccc(Cl)cc3)s2)cc1	29.2 µM (inactive)	15.4 µM (inactive)	34.4 µM (inactive)	29.2 µM (inactive)	44.8 µM (inactive)	18.5 µM (inactive)	13.9 µM (inactive)	24.1 µM (inactive)	> 100 µM (inactive)	24.2 µM (inactive)	18.8 µM (inactive)	> 100	21.8 µM (inactive)	20.5 µM (inactive)	20.6 µM (inactive)	37.8 µM (inactive)	> 100 µM (inactive)	> 100 µM (inactive)	30.5 µM (inactive)
COC(=O)C1(Cc2ccc3c(c2)CCC3)Cc2ccccc2C1O (configuration not stated)	21.6 µM (inactive)	17.5 µM (inactive)	12.8 µM (inactive)	18.7 µM (inactive)	11.5 µM (inactive)	17.4 µM (inactive)	18.7 µM (inactive)	20.5 µM (inactive)	18.7 µM (inactive)	19.8 µM (inactive)	15.7 µM (inactive)	21.5	20 µM (inactive)	19.3 µM (inactive)	22.1 µM (inactive)	22.8 µM (inactive)	22.6 µM (inactive)	16.7 µM (inactive)	15.9 µM (inactive)
Nc1nc(OCC2CCCCC2)c2nc[nH]c2n1	5 µM (inactive)	17.7 µM (inactive)	4.5 µM (inactive)	28.6 µM (inactive)	10.8 µM (inactive)	11.4 µM (inactive)	13.9 µM (inactive)	9.25 µM (inactive)	13.7 µM (inactive)	17.7 µM (inactive)	7.18 µM (inactive)	8.05	8.39 µM (inactive)	25.2 µM (inactive)	7.35 µM (inactive)	19.4 µM (inactive)	6.98 µM (inactive)	12.3 µM (inactive)	9.1 µM (inactive)

— ChEMBL document CHEMBL1201862, “PubChem BioAssay data set” (2004)
